{
  "source": "patent US20180092357A1",
  "about": "“SYNERGISTIC PRESERVATIVE COMPOSITIONS” (ISP Investments LLC, priority 2015, published 2018)",
  "format_in_all_cases": "cell-based",
  "key": {"[1]": {"system": "B. cepacia (ATCC 25416)", "assay": "MIC and synergy test (Kull method)", "details": "compound or premix acting alone", "experimental": "(§1) The cumulative synergistic activity of propylene carbonate, organic compounds/preservative compounds are performed against selected microbial strains.\n(§2) Tryptic Soy Broth (TSB) media was used for bacterial evaluations and Yeast Malt Broth (YMB) for fungal evaluations. The compounds were added to the media and serially diluted. After serially diluting the media, 100 μl of a suspension of the testing bacteria or fungi were added to a final concentration of approximately […]. The inoculated media was then incubated at 32° C. for 2-5 days for bacteria or at 28° C. for 3-7 days for fungi.\n(§3) The lowest concentration of each compound or mixture or compounds to inhibit visible growth was taken as the minimum inhibitory concentration (MIC). The MIC was taken as end points of activity. End points for the mixture of compound A (Propylene Carbonate) and compound B (organic compounds/conventional preservative) were then compared with the end points for the pure active ingredient alone.\n(§4) Synergism was determined by a commonly used and accepted method described by Kull A. C.; Eisman, P. C.; Sylwestrowicz, H. D. and Mayer, R. L. 1961. Applied Microbiology, 9:538-541 using the ratio determine by:\n(§5) • QA is the concentration of compound A in PPM, acting alone, which produced an end point. • Qa is the concentration of compound A in PPM, in the mixture, which produced an end point. • QB is the concentration of compound B in PPM, acting alone, which produced an end point. • Qb is the concentration of compound B in PPM, in the mixture, which produced an end point\n(§6) When the sum of Qa/QA+Qb/QB is greater than one, antagonism is indicated. When the sum is equal to one, additive is indicated.\n(§7) The results comprise following parameters: 1. Test organism (bacteria or fungi), 2. The end-point activity in % measured by MIC for the compound A alone (QA), for compound A in the mixture (Qa), for compound B alone (QB), for compound B in the mixture (Qb), 3. The ratio of Propylene carbonate or combinations of propylene carbonate and an organic compound (compound A) to organic compound (compound B) in that particular combination and the synergy index (SI) based on the formula SI=Qa/QA+Qb/QB."}, "[2]": {"system": "E. coli (ATCC 8739)", "assay": "MIC and synergy test (Kull method)", "details": "compound or premix acting alone", "experimental": "as §1, §2, §3, §4, §5, §6, §7"}, "[3]": {"system": "S. aureus (ATCC 6538)", "assay": "MIC and synergy test (Kull method)", "details": "compound or premix acting alone", "experimental": "as §1, §2, §3, §4, §5, §6, §7"}, "[4]": {"system": "A. brasilensis (ATCC 16404)", "assay": "MIC and synergy test (Kull method)", "details": "compound or premix acting alone", "experimental": "as §1, §2, §3, §4, §5, §6, §7"}, "[5]": {"system": "P. aeruginosa (ATCC 9027)", "assay": "MIC and synergy test (Kull method)", "details": "compound or premix acting alone", "experimental": "as §1, §2, §3, §4, §5, §6, §7"}, "[6]": {"system": "C. albicans (ATCC 10231)", "assay": "MIC and synergy test (Kull method)", "experimental": "as §1, §2, §3, §4, §5, §6, §7"}, "[7]": {"system": "bacteria and fungi", "assay": "Antimicrobial and antifungal characteristics (MIC), general statement", "details": "alone"}},
  "note": "Where “and” joins values, the source holds several entries; their conditions need not be identical. Identical values can stand only once.",
  "data": [
    {"compound": "CC1CCC(C(C)C)C(O)C1", "note": "(racemic) [DLM, DL-Menthol]", "values": [
      {"measurement": "MIC of the compound acting alone (QA, QB)", "setting": "[1]", "result": 0.69, "unit": "%"},
      {"measurement": "MIC of the compound acting alone (QA, QB)", "setting": "[2]", "result": 1.39, "unit": "%"},
      {"measurement": "MIC of the compound acting alone (QA, QB)", "setting": "[3]", "result": 0.69, "unit": "%"}
    ]},
    {"compound": "CCCCCCCC(=O)NO", "note": "[CHA, Capryl Hydroxamic Acid]", "values": [
      {"measurement": "MIC of the compound acting alone (QA, QB)", "setting": "[4]", "result": 0.031, "unit": "%"},
      {"measurement": "MIC of the compound acting alone (QA, QB)", "setting": "[2]", "result": 0.031, "unit": "%"},
      {"measurement": "MIC of the compound acting alone (QA, QB)", "setting": "[3]", "result": 0.125, "unit": "%"}
    ]},
    {"compound": "Cc1cc(O)ccc1C(C)C", "note": "[DBL, O-cymen-5-ol]", "values": [
      {"measurement": "MIC of the compound acting alone (QA, QB)", "setting": "[2]", "result": 0.0625, "unit": "%"}
    ]},
    {"compound": "CCCCCCCCC(O)CO", "note": "(stereo not shown) [DD]", "values": [
      {"measurement": "MIC of the compound acting alone (QA, QB)", "setting": "[4]", "result": "0.0156% and 0.008%"},
      {"measurement": "MIC of the compound acting alone (QA, QB)", "setting": "[1]", "result": 0.0625, "unit": "%"},
      {"measurement": "MIC of the compound acting alone (QA, QB)", "setting": "[2]", "result": "0.0625% and 0.0312%"},
      {"measurement": "MIC of the compound acting alone (QA, QB)", "setting": "[5]", "result": ">2.5", "unit": "%"},
      {"measurement": "MIC of the compound acting alone (QA, QB)", "setting": "[3]", "result": "0.0312% and 0.0156%"}
    ]},
    {"compound": "CCCCC(O)CO", "note": "(stereo not shown) [HD, 1,2-hexanediol]", "values": [
      {"measurement": "MIC of the compound acting alone (QA, QB)", "setting": "[4]", "result": 1.25, "unit": "%"},
      {"measurement": "MIC of the compound acting alone (QA, QB)", "setting": "[1]", "result": 0.625, "unit": "%"},
      {"measurement": "MIC of the compound acting alone (QA, QB)", "setting": "[2]", "result": 1.25, "unit": "%"},
      {"measurement": "MIC of the compound acting alone (QA, QB)", "setting": "[5]", "result": 1.25, "unit": "%"},
      {"measurement": "MIC of the compound acting alone (QA, QB)", "setting": "[3]", "result": 2.5, "unit": "%"}
    ]},
    {"compound": "CCCCCCOCC(O)CO", "note": "(stereo not shown) [HG, Hexylglycerine]", "values": [
      {"measurement": "MIC of the compound acting alone (QA, QB)", "setting": "[4]", "result": 0.156, "unit": "%"}
    ]},
    {"compound": "CCCCCCC(O)CO", "note": "(stereo not shown) [OD, 1,2 octanediol]", "values": [
      {"measurement": "MIC of the compound acting alone (QA, QB)", "setting": "[4]", "result": 0.312, "unit": "%"},
      {"measurement": "MIC of the compound acting alone (QA, QB)", "setting": "[5]", "result": 0.625, "unit": "%"},
      {"measurement": "MIC of the compound acting alone (QA, QB)", "setting": "[3]", "result": 0.625, "unit": "%"}
    ]},
    {"compound": "CCC(=O)O", "note": "[PA, Propionic Acid]", "values": [
      {"measurement": "MIC of the compound acting alone (QA, QB)", "setting": "[4]", "result": 0.078, "unit": "%"},
      {"measurement": "MIC of the compound acting alone (QA, QB)", "setting": "[1]", "result": 0.20, "unit": "%"}
    ]},
    {"compound": "CC1COC(=O)O1", "note": "(stereo not shown) [PC, Propylene Carbonate]", "values": [
      {"measurement": "MIC of the compound acting alone (QA, QB)", "setting": "[4]", "result": "1.56% and 3.12% and 0.78%"},
      {"measurement": "MIC of the compound acting alone (QA, QB)", "setting": "[1]", "result": "3.12% and 1.56%"},
      {"measurement": "MIC of the compound acting alone (QA, QB)", "setting": "[6]", "result": 6.25, "unit": "%"},
      {"measurement": "MIC of the compound acting alone (QA, QB)", "setting": "[2]", "result": "3.12% and 1.56% and 6.25%"},
      {"measurement": "MIC of the compound acting alone (QA, QB)", "setting": "[5]", "result": 3.12, "unit": "%"},
      {"measurement": "MIC of the compound acting alone (QA, QB)", "setting": "[3]", "result": "12.5% and 3.12% and 6.25%"},
      {"measurement": "antimicrobial and antifungal characteristics (MIC)", "setting": "[7]", "result": "no significant antimicrobial and antifungal characteristics"}
    ]},
    {"compound": "OCCc1ccccc1", "note": "[PhA, Phenethyl Alcohol]", "values": [
      {"measurement": "MIC of the compound acting alone (QA, QB)", "setting": "[1]", "result": 0.156, "unit": "%"},
      {"measurement": "MIC of the compound acting alone (QA, QB)", "setting": "[6]", "result": 0.625, "unit": "%"}
    ]},
    {"compound": "CCCCCCCCCCC=O", "note": "[UND, Undecanal]", "values": [
      {"measurement": "MIC of the compound acting alone (QA, QB)", "setting": "[4]", "result": 1.25, "unit": "%"}
    ]},
    {"compound": "Alkyl Glucoside [AG6206]", "values": [
      {"measurement": "MIC of the compound acting alone (QA, QB)", "setting": "[5]", "result": 3.12, "unit": "%"}
    ]}
  ]
}
